Here are results for 15 molecules from patent US20210269440A1 (BETTA PHARMACEUTICALS CO., LTD, priority 2018, published 2021).

pIC50: −log10 of the molar value. Where two headings read alike, the source gives them in different places. A value given as a limit tells only on which side of the number the result lay.

The assay deals with T1, PD-1/PD-L1 protein/protein interaction (Homo sapiens, UniProt Q9NZQ7).
T1 construct: Recombinant human PD-L1 protein (19-238) with a His-tag at the C-terminus; purchased AcroBiosystems PD1-H5229 (PD-L1); PD1-H5257 (PD-1)
T1 sequence (Q9NZQ7 19-238): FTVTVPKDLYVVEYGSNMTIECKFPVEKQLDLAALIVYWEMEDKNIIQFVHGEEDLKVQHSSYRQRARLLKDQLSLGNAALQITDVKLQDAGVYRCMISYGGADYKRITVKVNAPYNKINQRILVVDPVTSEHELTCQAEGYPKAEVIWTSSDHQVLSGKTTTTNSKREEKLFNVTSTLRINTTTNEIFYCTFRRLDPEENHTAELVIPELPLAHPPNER
Briefly: PD-1/PD-L1 homogenous time-resolved fluorescence (HTRF) binding assay. As to the method:
Resolved Fluorescence (HTRF) Binding Assay
The assays were conducted in a standard black 384-well polystyrene plate with a final volume of […]. Inhibitors were first serially diluted in DMSO and then added to the plate wells before the addition of other reaction components. The final concentration of DMSO in the assay was 1%. The assays were carried out at 25° C. in the PBS buffer (pH 7.4) with 0.05% Tween-20 and 0.1% BSA. […] Plates were centrifuged and proteins were preincubated with inhibitors for 40 min. The incubation was followed by the addition of 10 μL of HTRF detection buffer supplemented with Europium cryptate-labeled anti-human IgG (PerkinElmer-AD0212) specific for Fc and anti-His antibody conjugated to SureLight®—Allophycocyanin (APC, PerkinElmer-AD0059H). After centrifugation, the plate was incubated at 25° C. for 60 min. […] Final concentrations in the assay were […] PD1, 10 nM PD-L1, 1 nM europium anti-human IgG and 20 nM anti-His-Allophycocyanin. IC50 determination was performed by fitting the curve of percent control activity versus the log of the inhibitor concentration using the GraphPad Prism 5.0 software.
(In TR-FRET formats the signal depends on donor and acceptor labels being close together.)

As a reminder, the pIC50 is −log10 of the IC50, conventionally taken in molar units. On to `Cc1c(Nc2nccc3cc(CN4CCCCC4C(=O)O)cnc23)cccc1-c1cccc(OC(C)CCN2CCOCC2)c1C` (stereo not drawn) [Compound 55, 1-((8-((2,2′-dimethyl-3′-((4-morpholinobutan-2-yl)oxy)-[1,1′-biphenyl]-3-yl)amino)-1,7-naphthyridin-3-yl)methyl)piperidine-2-carboxylic acid], for which the pIC50 is 8.00 to 8.70.

`Cc1c(NC(=O)CCN2CCOCC2)cccc1-c1cccc(Nc2nccc3cc(CN4CCCCC4C(=O)O)cnc23)c1C` (stereo not drawn) [Compound 49, 1-((8-((2,2′-dimethyl-3′-(3-morpholinopropanamido)-[1,1′-biphenyl]-3-yl)amino)-1,7-naphthyridin-3-yl)methyl)piperidine-2-carboxylic acid] had a pIC50 of 8.00 to 8.70.

As to `CC(=O)NCCCOc1cccc(-c2cccc(Nc3nccc4cc(CN5CCCCC5C(=O)O)cnc34)c2C)c1C` (stereo not drawn) [Compound 24, 1-((8-((3′-(3-acetamidopropoxy)-2,2′-dimethyl-[1,1′-biphenyl]-3-yl)amino)-1,7-naphthyridin-3-yl)methyl)piperidine-2-carboxylic acid], the negative-log IC50 (pIC50) is below 6.82.

As for `Cc1c(Nc2nccc3cc(CN4CCCCC4C(=O)O)cnc23)cccc1-c1ccc(Cl)c(OCCCN2CCOCC2)c1` (stereo not drawn) [Compound 43, 1-((8-((4′-chloro-2-methyl-3′-(3-morpholinopropoxy)-[1,1′-biphenyl]-3-yl)amino)-1,7-naphthyridin-3-yl)methyl)piperidine-2-carboxylic acid], the pIC50 is 8.00 to 8.70.

Molecule `Cc1c(Nc2nccc3cc(CN4CCCCC4C(=O)O)cnc23)cccc1-c1cccc(OCCCN(C)Cc2ccccc2)c1C` (stereo not drawn) [Compound 22, 1-((8-((3′-(3-(benzyl(methyl)amino)propoxy)-2,2′-dimethyl-[1,1′-biphenyl]-3-yl)amino)-1,7-naphthyridin-3-yl)methyl)piperidine-2-carboxylic acid] gave a pIC50 of 8.00 to 8.70.

With `Cc1c(Nc2nccc3cc(CNCCC(=O)O)cnc23)cccc1-c1cccc(OCCCN2CCOCC2)c1C` [Compound 7, 3-(((8-((2,2′-dimethyl-3′-(3-morpholinopropoxy)-[1,1′-biphenyl]-3-yl)amino)-1,7-naphthyridin-3-yl)methyl)amino)propanoic acid], under “HTRF, recombinant human PD-1 (Fc tag) / PD-L1 (His-tag), 25° C., PBS pH 7.4, read-out: IC50”, the pIC50 was 9.40.

`Cc1c(COCCN2CCOCC2)cccc1-c1cccc(Nc2nccc3cc(CN4CCCCC4C(=O)O)cnc23)c1C` (stereo not drawn) [Compound 47, 1-((8-((2,2′-dimethyl-3′-((2-morpholinoethoxy)methyl)-[1,1′-biphenyl]-3-yl)amino)-1,7-naphthyridin-3-yl)methyl)piperidine-2-carboxylic acid] showed a pIC50 above 8.70.

In turn, `Cc1c(Nc2nccc3cc(CN4CCCCC4C(=O)O)cnc23)cccc1-c1cccc(OCCCNC2COC2)c1` (stereo not drawn) [Compound 33, 1-((8-((2-methyl-3′-(3-(oxetan-3-ylamino)propoxy)-[1,1′-biphenyl]-3-yl)amino)-1,7-naphthyridin-3-yl)methyl)piperidine-2-carboxylic acid] gave a pIC50 above 8.70.

For the molecule `CCNCCCOc1cccc(-c2cccc(Nc3nccc4cc(CN5CCCCC5C(=O)O)cnc34)c2C)c1C` (stereo not drawn) [Compound 23, 1-((8-((3′-(3-(ethylamino)propoxy)-2,2′-dimethyl-[1,1′-biphenyl]-3-yl)amino)-1,7-naphthyridin-3-yl)methyl)piperidine-2-carboxylic acid], the pIC50 was above 8.70.

The molecule `Cc1c(Nc2nccc3cc(CN4CCCCC4C(=O)O)cnc23)cccc1-c1cccc(OCCCN2CCOCC2)c1` (stereo not drawn) [Compound 36, 1-((8-((2-methyl-3′-(3-morpholinopropoxy)-[1,1′-biphenyl]-3-yl)amino)-1,7-naphthyridin-3-yl)methyl)piperidine-2-carboxylic acid] had a pIC50 of 8.00 to 8.70.

In the case of `Cc1c(Nc2nccc3cc(CN4CCCCC4C(=O)O)cnc23)cccc1-c1cccc(OCCCN2CCOCC2)c1C#N` (stereo not drawn) [Compound 39, 1-((8-((2′-cyano-2-methyl-3′-(3-morpholinopropoxy)-[1,1′-biphenyl]-3-yl)amino)-1,7-naphthyridin-3-yl)methyl)piperidine-2-carboxylic acid], the pIC50 was 8.00 to 8.70.

With `Cc1c(Nc2nccc3cc(CN4CCCCC4C(=O)O)cnc23)cccc1-c1cccc2c1CCC2OCCN1CCOCC1` (stereo not drawn) [Compound 56, 1-((8-((2-methyl-3-(1-(2-morpholinoethoxy)-2,3-dihydro-1H-inden-4-yl)phenyl)amino)-1,7-naphthyridin-3-yl)methyl)piperidine-2-carboxylic acid], the negative-log IC50 (pIC50) is below 6.82.

The molecule `Cc1c(Nc2nccc3cc(CN4CCCCC4C(=O)O)cnc23)cccc1-c1cccc(OCCCN2CCN(C)CC2)c1C` (stereo not drawn) [Compound 17, 1-((8-((2,2′-dimethyl-3′-(3-(4-methylpiperazin-1-yl)propoxy)-[1,1′-biphenyl]-3-yl)amino)-1,7-naphthyridin-3-yl)methyl)piperidine-2-carboxylic acid] had a pIC50 of 8.00 to 8.70.

For the molecule `Cc1c(/C=C/CCN2CCOCC2)cccc1-c1cccc(Nc2nccc3cc(CN4CCCCC4C(=O)O)cnc23)c1C` (stereo not drawn) [Compound 57, (E)-1-((8-((2,2′-dimethyl-3′-(4-morpholinobut-1-en-1-yl)-[1,1′-biphenyl]-3-yl)amino)-1,7-naphthyridin-3-yl)methyl)piperidine-2-carboxylic acid], the pIC50 was 8.00 to 8.70.

For `Cc1c(Nc2nccc3cc(CN4CCCCC4C(=O)O)cnc23)cccc1-c1ccc(C(F)(F)F)c(OCCCN2CCOCC2)c1` (stereo not drawn) [Compound 60, 1-((8-((2-methyl-3′-(3-morpholinopropoxy)-4′-(trifluoromethyl)-[1,1′-biphenyl]-3-yl)amino)-1,7-naphthyridin-3-yl)methyl)piperidine-2-carboxylic acid], the pIC50 was below 6.82.
